Results published in US11180484B2, “Pyrazole derivatives as plasma kallikrein inhibitors” (KALVISTA PHARMACEUTICALS LIMITED, priority 2016, dated 2021).

Tests used:
[1] = Intrinsic clearance in rat liver microsomes; format: in vitro ADME; settings: rat liver microsomes 0.5 mg/mL, 5 μM test compound, 37° C.; read-out: rat liver microsome (Clint μL/min/mg protein)
Method: (§1) Rat or human liver microsomes (0.5 mg/mL; Corning) were incubated with 5 μM test compound at 37° C. on a shaking platform (150 rpm). Samples were taken at 0, 6, 12, 18, 24 and 60 min and test compound concentrations were determined by LCMS against a calibration curve.

Human Factor XIIa = Human Factor XIIa (Homo sapiens (Human), UniProt P00748); test: Factor XIIa inhibitory activity in vitro; format: biochemical; settings: 25° C., substrate H-DPro-Phe-Arg-AFC; read-out: IC50 (human FXIIa)
Method: (§2) Human Factor XIIa (Enzyme Research Laboratories) was incubated at 25° C. with the fluorogenic substrate H-DPro-Phe-Arg-AFC and various concentrations of the test compound. Residual enzyme activity (initial rate of reaction) was determined by measuring the change in […] at 410 nm and the IC50 value for the test compound was determined.

[2] = In vitro permeability, Caco-2 model for oral absorption; format: in vitro ADME; settings: human, apical to basolateral, 50 μM test compound, 37° C.
Method: In vitro permeability was determined using the Caco-2 model for oral absorption. The methodology was adapted from standard published methods (Wang Z, Hop C. E., Leung K. H. and Pang J. (2000) J Mass Spectrom 35(1); 71-76). The Caco-2 monolayers were established in a Biocoat™ HTS fibrillar collagen 24 well multiwell insert system (1.0 μm, PET membrane, Corning 354803) in which 200,000 cells were seeded into each insert and maintained over 3 days before being utilised in the permeability assay. For the assay, 50 μM test compound is added to the apical side of the inserts and incubated for 1 hour at 37° C. on a shaking platform (120 rpm). Apical to basolateral transport was determined by measuring the test article in both compartments by LCMS following the 1 hour incubation. The integrity of the Caco-2 monolayers was confirmed by two methods, (i) comparison of pre- and post-experiment transepithelial electrical resistance (TEER) and, (ii) assessment of Lucifer Yellow flux.

Human KLK1 = Human KLK1 (Homo sapiens (Human), UniProt P06870); test: Determination of the IC50 for KLK1; format: biochemical; settings: 25° C., substrate H-DVal-Leu-Arg-AFC
Method: as §2, with “KLK1 (Callbiochem)” for “Factor XIIa (Enzyme Research Laboratories)”, “H-DVal-Leu-Arg-AFC” for “H-DPro-Phe-Arg-AFC”

Human FXIa = Human FXIa (Homo sapiens (Human), UniProt P03951); test: Determination of the % inhibition / IC50 for FXIa; format: biochemical; settings: for IC50: 25° C., substrate Z-Gly-Pro-Arg-AFC
Method: FXIa inhibitory activity in vitro was determined using standard published methods (see e.g. Johansen et al., Int. J. Tiss. Reac. 1986, 8, 185; Shori et al., Biochem. Pharmacol., 1992, 43, 1209; Sturzebecher et al., Biol. Chem. Hoppe-Seyler, 1992, 373, 1025). […]

Human plasma kallikrein = Human plasma kallikrein (Homo sapiens (Human), UniProt P03952); test: Determination of the IC50 for plasma kallikrein; format: biochemical; settings: 25° C., substrate H-DPro-Phe-Arg-AFC; read-out: IC50 (human PKal)
Method: as §2, with “plasma kallikrein (Protogen)” for “Factor XIIa (Enzyme Research Laboratories)”

[3] = Intrinsic clearance in human liver microsomes; format: in vitro ADME; settings: human liver microsomes 0.5 mg/mL, 5 μM test compound, 37° C.; read-out: Human liver microsome (Clint μL/min/mg protein)
Method: as §1

Human plasma kallikrein, sequence (P03952 391-638): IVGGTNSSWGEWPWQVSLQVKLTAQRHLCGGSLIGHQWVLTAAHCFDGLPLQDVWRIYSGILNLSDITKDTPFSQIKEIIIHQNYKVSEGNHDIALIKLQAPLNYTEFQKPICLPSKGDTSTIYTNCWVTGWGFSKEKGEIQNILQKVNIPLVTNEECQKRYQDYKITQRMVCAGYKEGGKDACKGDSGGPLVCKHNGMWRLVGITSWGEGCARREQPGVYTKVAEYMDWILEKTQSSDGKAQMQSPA
Human plasma kallikrein, sequence (P03952 20-390): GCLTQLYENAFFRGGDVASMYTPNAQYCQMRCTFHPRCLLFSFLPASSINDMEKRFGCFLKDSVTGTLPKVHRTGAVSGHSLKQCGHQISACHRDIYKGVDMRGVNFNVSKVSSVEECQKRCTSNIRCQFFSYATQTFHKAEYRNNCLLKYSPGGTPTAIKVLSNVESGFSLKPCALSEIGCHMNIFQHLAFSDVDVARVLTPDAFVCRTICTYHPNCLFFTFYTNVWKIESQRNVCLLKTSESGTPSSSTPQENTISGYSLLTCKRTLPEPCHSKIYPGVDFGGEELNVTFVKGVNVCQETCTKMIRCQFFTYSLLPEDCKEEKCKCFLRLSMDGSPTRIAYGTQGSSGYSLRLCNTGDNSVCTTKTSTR
Human FXIa, sequence (P03951 388-625): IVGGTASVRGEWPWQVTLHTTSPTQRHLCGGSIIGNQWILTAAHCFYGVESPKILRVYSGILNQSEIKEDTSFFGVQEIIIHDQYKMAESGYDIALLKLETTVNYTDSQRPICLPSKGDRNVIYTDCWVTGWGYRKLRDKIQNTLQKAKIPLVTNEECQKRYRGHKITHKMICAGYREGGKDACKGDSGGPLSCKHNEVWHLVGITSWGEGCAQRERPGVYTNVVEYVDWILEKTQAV
Human FXIa, sequence (P03951 19-387): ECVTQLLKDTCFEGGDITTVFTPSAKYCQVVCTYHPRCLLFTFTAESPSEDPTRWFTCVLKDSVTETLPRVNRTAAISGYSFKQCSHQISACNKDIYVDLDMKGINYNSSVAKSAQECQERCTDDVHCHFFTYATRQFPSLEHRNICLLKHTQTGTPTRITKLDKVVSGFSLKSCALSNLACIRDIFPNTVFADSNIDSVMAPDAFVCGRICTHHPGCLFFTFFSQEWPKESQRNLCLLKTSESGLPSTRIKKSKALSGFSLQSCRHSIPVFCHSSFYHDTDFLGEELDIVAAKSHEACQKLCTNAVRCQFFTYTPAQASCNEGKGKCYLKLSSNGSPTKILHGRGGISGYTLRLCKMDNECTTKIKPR
Human Factor XIIa, sequence (P00748 373-615): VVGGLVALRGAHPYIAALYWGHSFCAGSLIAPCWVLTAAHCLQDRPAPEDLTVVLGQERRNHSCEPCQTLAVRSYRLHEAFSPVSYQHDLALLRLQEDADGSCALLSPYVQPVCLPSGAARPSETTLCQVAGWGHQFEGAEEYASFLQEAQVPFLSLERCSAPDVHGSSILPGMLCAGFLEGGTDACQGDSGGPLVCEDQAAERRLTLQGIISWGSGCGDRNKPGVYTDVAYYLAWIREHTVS
Human KLK1, sequence (P06870 25-262): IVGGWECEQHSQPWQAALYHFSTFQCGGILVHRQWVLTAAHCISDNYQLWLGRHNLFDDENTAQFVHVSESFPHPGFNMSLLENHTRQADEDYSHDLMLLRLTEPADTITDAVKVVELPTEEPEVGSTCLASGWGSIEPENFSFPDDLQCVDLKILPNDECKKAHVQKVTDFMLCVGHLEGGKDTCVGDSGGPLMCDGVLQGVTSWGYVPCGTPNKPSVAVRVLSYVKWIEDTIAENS

Row | Compound | microsomal CLint at 5 μM [1] | IC50 (Human Factor XIIa) | Papp at 1 h, 50 μM [2] | IC50 (Human KLK1) | inhibition at 40 µM (Human FXIa; 40 μM test compound, read-out: % Inhibition @ 40 μM (human FXIa)) | IC50 (Human FXIa) | IC50 (Human plasma kallikrein) | microsomal CLint at 5 μM [3]
1 | COc1ccc(C#N)c(CNC(=O)c2cn(Cc3ccc(Cn4ccccc4=O)cc3)nc2N(C)C)c1F [Example 44, N-[(6-cyano-2-fluoro-3-methoxyphenyl)methyl]-3-(dimethylamino)-1-({4-[(2-oxopyridin-1-yl)methyl]phenyl}methyl)pyrazole-4-carboxamide] | 101 µL/min/mg | > 40 µM | 17 ×10⁻⁶ cm/s | > 80 µM | 32% | > 40 µM | 0.0088 µM | 162 µL/min/mg
2 | COCc1nn(Cc2ccc(Cn3ccccc3=O)cc2)cc1C(=O)NCc1c(C(N)=O)ccc(OC)c1F [Example 42, N-[(6-carbamoyl-2-fluoro-3-methoxyphenyl)methyl]-3-(methoxymethyl)-1-({4-[(2-oxopyridin-1-yl)methyl]phenyl}methyl)pyrazole-4-carboxamide] | 11 µL/min/mg | > 4 µM | 4 ×10⁻⁶ cm/s | > 4 µM |  | > 40 µM | 0.0036 µM | 8 µL/min/mg
3 | COCc1nn(Cc2ccc(Cn3cccn3)cc2)cc1C(=O)NCc1cccc(Cl)c1F [Reference Example J, reference compound] | 187 µL/min/mg | > 40 µM | 12 ×10⁻⁶ cm/s | > 40 µM |  | > 40 µM | 2.87 µM | 110 µL/min/mg
4 | COc1ccnc(CNC(=O)c2cn(Cc3ccc(Cn4ccccc4=O)cc3)nc2N(C)C)c1F [Example 7, 3-(dimethylamino)-N-[(3-fluoro-4-methoxypyridin-2-yl)methyl]-1-({4-[(2-oxopyridin-1-yl)methyl]phenyl}methyl)pyrazole-4-carboxamide] | 8 µL/min/mg | > 40 µM | 10 ×10⁻⁶ cm/s | > 40 µM |  | > 40 µM | 0.018 µM | 22 µL/min/mg
5 | COCc1nn(Cc2ccc(Cn3ccccc3=O)cc2)cc1C(=O)NCc1cc(F)ccc1-n1cnnn1 [Example 49, N-{[5-fluoro-2-(1,2,3,4-tetrazol-1-yl)phenyl]methyl}-3-(methoxymethyl)-1-({4-[(2-oxopyridin-1-yl)methyl]phenyl}methyl)pyrazole-4-carboxamide] | 36 µL/min/mg | > 4 µM | 6 ×10⁻⁶ cm/s | > 4 µM |  | > 40 µM | 0.0159 µM | 18 µL/min/mg
6 | COCc1nn(Cc2ccc(Cn3cc(C)cn3)cc2)cc1C(=O)NCc1nccc(OC)c1F [Example 1, N-[(3-fluoro-4-methoxypyridin-2-yl)methyl]-3-(methoxymethyl)-1-({4-[(4-methylpyrazol-1-yl)methyl]phenyl}methyl)pyrazole-4-carboxamide] | 52 µL/min/mg | > 40 µM | 28 ×10⁻⁶ cm/s | > 40 µM |  | > 40 µM | 0.0261 µM | 33 µL/min/mg
7 | COCc1nn(Cc2ccc(Cn3cccn3)cc2)cc1C(=O)NCc1cccc(Cl)c1 [Reference Example I, reference compound] | 153 µL/min/mg | > 40 µM | 15 ×10⁻⁶ cm/s | > 40 µM |  | > 40 µM | 2.02 µM | 77 µL/min/mg
8 | COCc1nn(Cc2ccc(Cn3ccccc3=O)cc2)cc1C(=O)NCc1ncccc1C#N [Example 13, N-[(3-cyanopyridin-2-yl)methyl]-3-(methoxymethyl)-1-({4-[(2-oxopyridin-1-yl)methyl]phenyl}methyl)pyrazole-4-carboxamide] |  | > 4 µM |  | > 4 µM |  | > 40 µM | 2.95 µM | 

Now from value to molecule:

Row | microsomal CLint at 5 μM [1] | IC50 (Human Factor XIIa) | Papp at 1 h, 50 μM [2] | IC50 (Human KLK1) | inhibition at 40 µM (Human FXIa; 40 μM test compound, read-out: % Inhibition @ 40 μM (human FXIa)) | IC50 (Human FXIa) | IC50 (Human plasma kallikrein) | microsomal CLint at 5 μM [3] | Compound
9 | 25 µL/min/mg | > 4 µM | 3 ×10⁻⁶ cm/s | > 4 µM |  | > 40 µM | 0.0213 µM | 30 µL/min/mg | COCc1nn(Cc2ccc(Cn3ccccc3=O)cn2)cc1C(=O)NCc1c(C#N)ccc(OC)c1F [Example 51, N-[(6-cyano-2-fluoro-3-methoxyphenyl)methyl]-3-(methoxymethyl)-1-({5-[(2-oxopyridin-1-yl)methyl]pyridin-2-yl}methyl)pyrazole-4-carboxamide]
10 |  | > 40 µM | 3 ×10⁻⁶ cm/s | > 40 µM |  | 0.076 µM | 0.002 µM |  | COc1ccc(-n2cnnn2)c(CNC(=O)c2cnn(Cc3cnc(N4CCCC4)nc3)c2)c1F [Reference Example K, reference compound]
11 |  | > 4 µM | 4 ×10⁻⁶ cm/s | > 4 µM |  | > 40 µM | 0.0231 µM |  | COCc1nn(Cc2ccc(Cn3ccccc3=O)cc2)cc1C(=O)NCc1c(Cl)cccc1-n1cnnn1 [Example 73, N-{[2-chloro-6-(1,2,3,4-tetrazol-1-yl)phenyl]methyl}-3-(methoxymethyl)-1-({4-[(2-oxopyridin-1-yl)methyl]phenyl}methyl)pyrazole-4-carboxamide]
12 |  | > 40 µM | 4 ×10⁻⁶ cm/s | > 40 µM |  | 0.161 µM | 0.0008 µM |  | COCc1nn(Cc2ccc(N3CCC(F)(F)C3)nc2)cc1C(=O)NCc1c(-n2cnnn2)ccc(OC)c1F [Example 87, 1-{[6-(3,3-difluoropyrrolidin-1-yl)pyridin-3-yl]methyl}-N-{[2-fluoro-3-methoxy-6-(1,2,3,4-tetrazol-1-yl)phenyl]methyl}-3-(methoxymethyl)pyrazole-4-carboxamide]
13 | 17 µL/min/mg | > 4 µM | 1 ×10⁻⁶ cm/s | > 4 µM |  | 4.6 µM | 0.0003 µM | 17 µL/min/mg | Nc1nn(Cc2ccc(Cn3ccccc3=O)cc2)cc1C(=O)NCc1cc(Cl)ccc1-n1cnnn1 [Example 71, 3-amino-N-{[5-chloro-2-(1,2,3,4-tetrazol-1-yl)phenyl]methyl}-1-({4-[(2-oxopyridin-1-yl)methyl]phenyl}methyl)pyrazole-4-carboxamide]
14 |  | > 40 µM | 26 ×10⁻⁶ cm/s | > 40 µM |  | 8.5 µM | 0.057 µM |  | COCc1nn(Cc2cnc(N3CCCC3)nc2)cc1C(=O)NCc1c(C#N)ccc(OC)c1F [Example 58, N-[(6-cyano-2-fluoro-3-methoxyphenyl)methyl]-3-(methoxymethyl)-1-{[2-(pyrrolidin-1-yl)pyrimidin-5-yl]methyl}pyrazole-4-carboxamide]
15 | 8 µL/min/mg | > 4 µM | 5 ×10⁻⁶ cm/s | > 4 µM |  | > 40 µM | 0.0064 µM | 16 µL/min/mg | COCc1nn(Cc2ccc(Cn3ccccc3=O)nc2)cc1C(=O)NCc1c(C#N)ccc(OC)c1F [Example 52, N-[(6-cyano-2-fluoro-3-methoxyphenyl)methyl]-3-(methoxymethyl)-1-({6-[(2-oxopyridin-1-yl)methyl]pyridin-3-yl}methyl)pyrazole-4-carboxamide]
